{
  "source": "paper PMC5218480",
  "about": "(PLoS ONE, 2017)",
  "tested_on": "MV-4-11 cells",
  "experiment": "Gene expression microarray analysis (Affymetrix PrimeView) and GSEA",
  "type": "cell-based, human",
  "set-up": "RFU PODN (11730768_x_at) / Fold change /veh PODN (11730768_x_at) / RFU LINC00158 (11744669_a_at) / Fold change /veh LINC00158 (11744669_a_at) / RFU DUSP10 (11751237_a_at) / Fold change /veh DUSP10 (11751237_a_at) / RFU ID3 (11757404_x_at) / Fold change /veh ID3 (11757404_x_at) / RFU PLEKHG5 (11737974_s_at) / Fold change /veh PLEKHG5 (11737974_s_at) / RFU LRRC4B (11730491_at) / Fold change /veh LRRC4B (11730491_at) / RFU GIMAP4 (11747438_a_at) / Fold change /veh GIMAP4 (11747438_a_at) / RFU KRT8 (11758183_x_at) / Fold change /veh KRT8 (11758183_x_at) / RFU CNN1 (11734310_a_at) / Fold change /veh CNN1 (11734310_a_at) / RFU VPS37D (11726825_at) / Fold change /veh VPS37D (11726825_at) / RFU C10orf10 (11716522_x_at) / Fold change /veh C10orf10 (11716522_x_at) / RFU KIR2DL2 /// KIR2DL4 /// KIR2DL5A /// KIR2DL5B /// KIR2DS1 /// KIR2DS2 /// KIR2DS3 /// KIR2DS4 /// KIR3DL3 /// KIR3DL3 /// KIR3DS1 (11738374_at) / Fold change /veh KIR2DL2 /// KIR2DL4 /// KIR2DL5A /// KIR2DL5B /// KIR2DS1 /// KIR2DS2 /// KIR2DS3 /// KIR2DS4 /// KIR3DL3 /// KIR3DL3 /// KIR3DS1 (11738374_at) / RFU C1QL1 (11718748_at) / Fold change /veh C1QL1 (11718748_at) / RFU TMPRSS4 (11747572_a_at) / Fold change /veh TMPRSS4 (11747572_a_at) / RFU HAMP (11756126_x_at) / Fold change /veh HAMP (11756126_x_at) / RFU RNFT2 (11725882_a_at) / Fold change /veh RNFT2 (11725882_a_at) / RFU NR4A2 (11747474_a_at) / Fold change /veh NR4A2 (11747474_a_at) / RFU ABCC12 (11746883_a_at) / Fold change /veh ABCC12 (11746883_a_at) / RFU TMEM136 (11760407_x_at) / Fold change /veh TMEM136 (11760407_x_at) / RFU CLDN22 /// WWC2 (11732394_at) / Fold change /veh CLDN22 /// WWC2 (11732394_at) / RFU HLA-DPB1 (11760878_x_at) / Fold change /veh HLA-DPB1 (11760878_x_at) / RFU SPINT1 (11716480_a_at) / Fold change /veh SPINT1 (11716480_a_at) / RFU GAP43 (11754022_s_at) / Fold change /veh GAP43 (11754022_s_at) / RFU A4GNT (11735810_at) / Fold change /veh A4GNT (11735810_at) / RFU PRB3 (11715151_x_at) / Fold change /veh PRB3 (11715151_x_at) / RFU TUBB4B (11761932_at) / Fold change /veh TUBB4B (11761932_at) / RFU CAPN14 (11732068_a_at) / Fold change /veh CAPN14 (11732068_a_at) / RFU TMCC2 (11721928_a_at) / Fold change /veh TMCC2 (11721928_a_at) / RFU IRGQ (11745062_a_at) / Fold change /veh IRGQ (11745062_a_at) / RFU FAM174B (11720279_a_at) / Fold change /veh FAM174B (11720279_a_at) / RFU TMPRSS4 (11748680_a_at) / Fold change /veh TMPRSS4 (11748680_a_at) / RFU FAM212B (11763350_a_at) / Fold change /veh FAM212B (11763350_a_at) / RFU PLEKHG5 (11743358_a_at) / Fold change /veh PLEKHG5 (11743358_a_at) / RFU ZSCAN30 (11745921_a_at) / Fold change /veh ZSCAN30 (11745921_a_at) / RFU CMKLR1 (11741424_a_at) / Fold change /veh CMKLR1 (11741424_a_at) / RFU LOC101060620 /// MAPK8IP1 (11723275_at) / Fold change /veh LOC101060620 /// MAPK8IP1 (11723275_at) / RFU SPTSSB (11747773_x_at) / Fold change /veh SPTSSB (11747773_x_at) / RFU PRSS12 (11739890_at) / Fold change /veh PRSS12 (11739890_at) / RFU BIN1 (11741810_x_at) / Fold change /veh BIN1 (11741810_x_at) / RFU WNT11 (11732464_a_at) / Fold change /veh WNT11 (11732464_a_at) / RFU C10orf10 (11716521_a_at) / Fold change /veh C10orf10 (11716521_a_at) / RFU C5orf56 (11738089_at) / Fold change /veh C5orf56 (11738089_at) / RFU CYB561 (11721691_x_at) / Fold change /veh CYB561 (11721691_x_at) / RFU ANKRD19P (11752326_a_at) / Fold change /veh ANKRD19P (11752326_a_at) / RFU OR2T12 /// OR2T33 /// OR2T8 (11738714_s_at) / Fold change /veh OR2T12 /// OR2T33 /// OR2T8 (11738714_s_at) / RFU VCAN (11748164_a_at) / Fold change /veh VCAN (11748164_a_at) / RFU JSRP1 (11732532_at) / Fold change /veh JSRP1 (11732532_at) / RFU KRTAP10-11 (11738290_x_at) / Fold change /veh KRTAP10-11 (11738290_x_at) / RFU MYO3A (11730013_a_at) / Fold change /veh MYO3A (11730013_a_at) / RFU EBF3 (11725865_a_at) / Fold change /veh EBF3 (11725865_a_at) / RFU CAMK2N1 (11719241_x_at) / Fold change /veh CAMK2N1 (11719241_x_at) / RFU C5orf56 (11738088_a_at) / Fold change /veh C5orf56 (11738088_a_at) / RFU OLFML3 (11715873_a_at) / Fold change /veh OLFML3 (11715873_a_at) / RFU LOC100653217 /// NTM (11731650_a_at) / Fold change /veh LOC100653217 /// NTM (11731650_a_at) / RFU MAPK11 (11762145_a_at) / Fold change /veh MAPK11 (11762145_a_at) / RFU FIZ1 (11724087_x_at) / Fold change /veh FIZ1 (11724087_x_at) / RFU OASL (11726364_x_at) / Fold change /veh OASL (11726364_x_at) / RFU SOX15 (11748057_x_at) / Fold change /veh SOX15 (11748057_x_at) / RFU CD79A (11719716_a_at) / Fold change /veh CD79A (11719716_a_at) / RFU HIST1H1D (11736915_at) / Fold change /veh HIST1H1D (11736915_at) / RFU CASKIN2 (11723855_a_at) / Fold change /veh CASKIN2 (11723855_a_at) / RFU LOC730098 (11760151_x_at) / Fold change /veh LOC730098 (11760151_x_at) / RFU OR4N2 (11742367_at) / Fold change /veh OR4N2 (11742367_at) / RFU PRRT2 (11749266_a_at) / Fold change /veh PRRT2 (11749266_a_at) / RFU SNX32 (11753110_a_at) / Fold change /veh SNX32 (11753110_a_at) / RFU CDHR5 (11726645_a_at) / Fold change /veh CDHR5 (11726645_a_at) / RFU RCAN1 (11760418_a_at) / Fold change /veh RCAN1 (11760418_a_at) / RFU FAM167A (11723789_a_at) / Fold change /veh FAM167A (11723789_a_at) / RFU FAM26E (11764081_at) / Fold change /veh FAM26E (11764081_at) / RFU ISYNA1 (11749810_s_at) / Fold change /veh ISYNA1 (11749810_s_at) / RFU ACY1 (11761880_at) / Fold change /veh ACY1 (11761880_at) / RFU 11764098_at / Fold change /veh 11764098_at / RFU SAMD14 (11745864_x_at) / Fold change /veh SAMD14 (11745864_x_at) / RFU NPB (11741838_a_at) / Fold change /veh NPB (11741838_a_at) / RFU TMPRSS6 (11731388_a_at) / Fold change /veh TMPRSS6 (11731388_a_at) / RFU KRTAP10-2 (11738614_at) / Fold change /veh KRTAP10-2 (11738614_at) / RFU ARHGAP8 /// PRR5-ARHGAP8 (11727945_x_at) / Fold change /veh ARHGAP8 /// PRR5-ARHGAP8 (11727945_x_at) / RFU KRTAP5-7 /// NADSYN1 (11734609_at) / Fold change /veh KRTAP5-7 /// NADSYN1 (11734609_at) / RFU RASL12 (11751679_a_at) / Fold change /veh RASL12 (11751679_a_at) / RFU CDKN2B (11736163_a_at) / Fold change /veh CDKN2B (11736163_a_at) / RFU PRF1 (11729649_at) / Fold change /veh PRF1 (11729649_at) / RFU, ZNF638 /// ZNF638-IT1 / Fold change vs veh, ZNF638 /// ZNF638-IT1 / RFU, PANK3 / Fold change vs veh, PANK3 / RFU, SH3YL1 / Fold change vs veh, SH3YL1 / RFU, ZEB2 / Fold change vs veh, ZEB2 / RFU, NRIP1 / Fold change vs veh, NRIP1 / RFU, PTTG1IP / Fold change vs veh, PTTG1IP / RFU, CAPN2 / Fold change vs veh, CAPN2 / RFU, MED14 / Fold change vs veh, MED14 / RFU, SNORA58 / Fold change vs veh, SNORA58 / RFU, C1orf63 / Fold change vs veh, C1orf63 / RFU, LRRFIP1 / Fold change vs veh, LRRFIP1 / RFU, NDUFAF7 / Fold change vs veh, NDUFAF7 / RFU, SLC12A2 / Fold change vs veh, SLC12A2 / RFU, IBTK / Fold change vs veh, IBTK / RFU, ESF1 / Fold change vs veh, ESF1 / Fold change vs veh, TMEM50B / RFU, TAOK1 / Fold change vs veh, TAOK1 / RFU, ACBD3 / Fold change vs veh, ACBD3 / RFU, TMA16 / Fold change vs veh, TMA16 / RFU, RWDD3 / Fold change vs veh, RWDD3 / RFU, BCAT1 / Fold change vs veh, BCAT1 / RFU, EDEM3 / Fold change vs veh, EDEM3 / RFU, TMEM33 / Fold change vs veh, TMEM33 / RFU, WDR75 / Fold change vs veh, WDR75 / RFU, AHCTF1 / Fold change vs veh, AHCTF1 / RFU, TFRC / Fold change vs veh, TFRC / RFU, ZDHHC17 / Fold change vs veh, ZDHHC17 / RFU, NOM1 / Fold change vs veh, NOM1 / RFU, ARL8B / Fold change vs veh, ARL8B / RFU, ZBTB11 / Fold change vs veh, ZBTB11 / RFU, TAMM41 / Fold change vs veh, TAMM41 / RFU, KIAA1704 /// LOC100996395 / Fold change vs veh, KIAA1704 /// LOC100996395 / RFU, ING1 / Fold change vs veh, ING1 / RFU, TRMT61B / Fold change vs veh, TRMT61B / RFU, FUBP3 / Fold change vs veh, FUBP3 / RFU, TP53 / Fold change vs veh, TP53 / RFU, TNKS2 / Fold change vs veh, TNKS2 / RFU, ZFP14 / Fold change vs veh, ZFP14 / RFU, ACTR2 / Fold change vs veh, ACTR2 / RFU, PPP3R1 / Fold change vs veh, PPP3R1 / RFU, PIK3R1 / Fold change vs veh, PIK3R1 / RFU, HNRNPA1 / Fold change vs veh, HNRNPA1 / RFU, RNF170 / Fold change vs veh, RNF170 / RFU, ZNF28 / Fold change vs veh, ZNF28 / RFU, RNGTT / Fold change vs veh, RNGTT / RFU, OGT / Fold change vs veh, OGT / RFU, BRD1 / Fold change vs veh, BRD1 / RFU, MARS / Fold change vs veh, MARS / RFU, ZNF655 / Fold change vs veh, ZNF655 / RFU, FAHD1 / Fold change vs veh, FAHD1 / RFU, BDP1 / Fold change vs veh, BDP1 / RFU, LRRCC1 / Fold change vs veh, LRRCC1 / RFU, ARID1A / Fold change vs veh, ARID1A / RFU, ZNF146 / Fold change vs veh, ZNF146 / RFU, ZNF330 / Fold change vs veh, ZNF330 / RFU, GPN3 / Fold change vs veh, GPN3 / RFU, C9orf123 / Fold change vs veh, C9orf123 / RFU, N4BP2L2 / Fold change vs veh, N4BP2L2 / RFU, ARFIP1 / Fold change vs veh, ARFIP1 / RFU, FAM179B / Fold change vs veh, FAM179B / RFU, BCL10 / Fold change vs veh, BCL10 / RFU, UHRF1BP1L / Fold change vs veh, UHRF1BP1L / RFU, BET1 / Fold change vs veh, BET1 / RFU, CNOT2 / Fold change vs veh, CNOT2 / RFU, ZNF268 / Fold change vs veh, ZNF268 / Fold change vs veh, ZNF507 / RFU, DGCR2 / Fold change vs veh, DGCR2 / RFU, WDSUB1 / Fold change vs veh, WDSUB1 / Fold change vs veh, HSP90B1 /// MIR3652 / RFU, ADSS / Fold change vs veh, ADSS / RFU, GK / Fold change vs veh, GK / RFU, ZNF148 / Fold change vs veh, ZNF148 / RFU, TAF9 / Fold change vs veh, TAF9 / RFU, SLC1A5 / Fold change vs veh, SLC1A5 / RFU, SLMO2 / Fold change vs veh, SLMO2 / RFU, ABCC4 / Fold change vs veh, ABCC4 / RFU, LOC101060439 /// RAP1B / Fold change vs veh, LOC101060439 /// RAP1B / RFU, RFX7 / Fold change vs veh, RFX7 / RFU, GTPBP10 / Fold change vs veh, GTPBP10 / RFU, CNEP1R1 / Fold change vs veh, CNEP1R1 / RFU, BIVM-ERCC5 /// ERCC5 / Fold change vs veh, BIVM-ERCC5 /// ERCC5 / RFU, ILF3 / Fold change vs veh, ILF3 / RFU 11762660_at / Fold change /veh 11762660_at / RFU VCAN (11757783_s_at) / Fold change /veh VCAN (11757783_s_at) / RFU DDX43 (11728927_at) / Fold change /veh DDX43 (11728927_at) / RFU KRT8 (11758188_x_at) / Fold change /veh KRT8 (11758188_x_at) / RFU NKD1 (11759106_at) / Fold change /veh NKD1 (11759106_at) / RFU SRD5A1 (11742802_a_at) / Fold change /veh SRD5A1 (11742802_a_at) / RFU TPSAB1 /// TPSB2 (11721975_s_at) / Fold change /veh TPSAB1 /// TPSB2 (11721975_s_at) / RFU GSTM3 (11746129_a_at) / Fold change /veh GSTM3 (11746129_a_at) / RFU IL23R (11737362_x_at) / Fold change /veh IL23R (11737362_x_at) / RFU TMEM51 (11727254_a_at) / Fold change /veh TMEM51 (11727254_a_at) / RFU PIWIL2 (11732686_x_at) / Fold change /veh PIWIL2 (11732686_x_at) / RFU ORM1 (11744905_x_at) / Fold change /veh ORM1 (11744905_x_at) / RFU CCDC152 (11743942_at) / Fold change /veh CCDC152 (11743942_at) / RFU ECM1 (11717891_a_at) / Fold change /veh ECM1 (11717891_a_at) / RFU IL23R (11748794_a_at) / Fold change /veh IL23R (11748794_a_at) / RFU TNFAIP8L3 (11732012_x_at) / Fold change /veh TNFAIP8L3 (11732012_x_at) / RFU MBOAT4 (11741988_at) / Fold change /veh MBOAT4 (11741988_at) / RFU 11764193_at / Fold change /veh 11764193_at / RFU TMEM53 (11763286_at) / Fold change /veh TMEM53 (11763286_at) / RFU MAGEB2 (11727129_at) / Fold change /veh MAGEB2 (11727129_at) / RFU TMEM200A (11744735_a_at) / Fold change /veh TMEM200A (11744735_a_at) / RFU CCDC152 (11751479_a_at) / Fold change /veh CCDC152 (11751479_a_at) / RFU FAM211A (11726209_a_at) / Fold change /veh FAM211A (11726209_a_at) / RFU RGS16 (11746705_a_at) / Fold change /veh RGS16 (11746705_a_at) / RFU VCAN (11755009_s_at) / Fold change /veh VCAN (11755009_s_at) / RFU RHOB (11743442_s_at) / Fold change /veh RHOB (11743442_s_at) / RFU RGS16 (11720943_a_at) / Fold change /veh RGS16 (11720943_a_at) / RFU RGS16 (11720944_at) / Fold change /veh RGS16 (11720944_at) / RFU, VPS4B / Fold change vs veh, VPS4B / RFU, CREB1 / Fold change vs veh, CREB1 / RFU, DNAJC13 / Fold change vs veh, DNAJC13 / RFU, GNAQ / Fold change vs veh, GNAQ / RFU, CDK5R1 / Fold change vs veh, CDK5R1 / RFU, ZRANB3 / Fold change vs veh, ZRANB3 / RFU, CUL4A / Fold change vs veh, CUL4A / RFU, CCNY / Fold change vs veh, CCNY / RFU, UFL1 / Fold change vs veh, UFL1 / RFU, COG3 / Fold change vs veh, COG3 / RFU, DIAPH2 / Fold change vs veh, DIAPH2 / RFU, SKA2 / Fold change vs veh, SKA2 / RFU, AFF3 / Fold change vs veh, AFF3 / RFU, LMF1 / Fold change vs veh, LMF1 / RFU, IPO11 / Fold change vs veh, IPO11 / RFU, DFFB / Fold change vs veh, DFFB / RFU, FOXP1 / Fold change vs veh, FOXP1 / RFU, CARD8 / Fold change vs veh, CARD8 / RFU, STRN3 / Fold change vs veh, STRN3 / RFU, ADK / Fold change vs veh, ADK / RFU, RASSF2 / Fold change vs veh, RASSF2 / RFU, WIPF1 / Fold change vs veh, WIPF1 / RFU, LARP1B / Fold change vs veh, LARP1B / RFU, RASA1 / Fold change vs veh, RASA1 / RFU, RB1 / Fold change vs veh, RB1 / RFU, PPFIA1 / Fold change vs veh, PPFIA1 / RFU, MAT2A / Fold change vs veh, MAT2A / RFU, CCT5 / Fold change vs veh, CCT5 / RFU, WDR92 / Fold change vs veh, WDR92 / RFU, CUX1 / Fold change vs veh, CUX1 / RFU, TTC7A / Fold change vs veh, TTC7A / RFU, TMEM135 / Fold change vs veh, TMEM135 / RFU, DEPTOR / Fold change vs veh, DEPTOR / RFU, CPM / Fold change vs veh, CPM / RFU, DNAJB6 / Fold change vs veh, DNAJB6 / RFU, CACNA2D3 / Fold change vs veh, CACNA2D3 / RFU, DTX4 / Fold change vs veh, DTX4 / RFU, TFCP2 / Fold change vs veh, TFCP2 / RFU, GMCL1 /// GMCL1P1 / Fold change vs veh, GMCL1 /// GMCL1P1 / RFU, AEBP2 / Fold change vs veh, AEBP2 / RFU, SNHG1 /// SNORD22 /// SNORD25 /// SNORD26 /// SNORD27 /// SNORD28 /// SNORD29 /// SNORD31 / Fold change vs veh, SNHG1 /// SNORD22 /// SNORD25 /// SNORD26 /// SNORD27 /// SNORD28 /// SNORD29 /// SNORD31 / Fold change (Aza/veh), C12orf56 (ProbeSet 11735607_a_at) / Fold change (ACY-1035/veh), C12orf56 (ProbeSet 11735607_a_at) / Fold change (Aza/veh), FGFR1OP (ProbeSet 11751329_s_at) / Fold change (ACY-1035/veh), FGFR1OP (ProbeSet 11751329_s_at) / Fold change (Aza/veh), VPS36 (ProbeSet 11739960_a_at) / Fold change (ACY-1035/veh), VPS36 (ProbeSet 11739960_a_at) / RFU SYPL1 (11715823_x_at) / Fold change /veh SYPL1 (11715823_x_at) / RFU IGFBP7 (11715501_s_at) / Fold change /veh IGFBP7 (11715501_s_at) / RFU REEP3 (11722064_at) / Fold change /veh REEP3 (11722064_at) / RFU IGLL1 (11728026_x_at) / Fold change /veh IGLL1 (11728026_x_at): dose or concentration left out as unconfirmed",
  "details": "ProbeSet 11753234_a_at; LIST B",
  "data": [
    {"molecule": "Nc1ncn([C@@H]2O[C@H](CO)[C@@H](O)[C@H]2O)c(=O)n1", "note": "[azacitidine]", "values": [
      {"measurement": "Fold change vs veh, TAMM41", "result": 0.86}
    ]}
  ]
}
